# Where “and” joins values, the source holds several entries; their conditions need not be identical. Equal values may be shown once. Read-outs that look alike come from different tables or passages of the source.
# Assays:
# [1] = Plasma protein binding assay (ultrafiltration); format: in vitro ADME; conditions: Wistar, rat; for fraction unbound at 4 h, 1 μg/mL / fraction unbound at 4 h, 5 μg/mL / fraction unbound at 4 h, 10 μg/mL / fraction unbound at 4 h, 20 μg/mL: ultrafiltration, 37°C
# Experimental: The resulting samples were incubated for 4 h at 37°C. After incubation, a 100 μL aliquot was removed to analyze the total concentration, and the remaining 500 μL was transferred to a 10 kD cut-off ultrafiltration device (Millipore Corporation, USA), which was centrifuged at 2,000 g for 2 h at 37°C. A 100 μL aliquot of centrifuged plasma was analyzed for the free drug concentration using the RP-HPLC method. The amount of the test compound in the ultrafiltrate was determined by interpolating the main areas of the samples on standard curves containing known amounts of C2. The percentage of protein binding was calculated using the following formula: Protein binding ratio (%) = […].
# [2] = Blood-plasma partitioning (BP ratio); format: in vitro ADME, Wistar rats; conditions: Wistar rat blood, 37°C, 4 h
# Experimental: […] The plasma was separated from blood samples, and the concentration of C2 was determined based on a standard curve prepared with blank plasma using the RP-HPLC method. […] The concentration of C2 in blood cells was assumed to be equal to its unbound concentration in the plasma.
# [3] = tested on: MPO; set-up: method as in ref 34 = [34]; 34 Gutiérrez Sánchez M , Rosales-Hernández MC , Padilla-Martínez II , Correa-Basurto J , Mendieta-Wejebe JE . In vivo evaluation of two 5-aminosalicylic acid derivatives considered as potential therap; conditions: model of inflammation in the mouse ear; cited from earlier work
# [4] = read-out: % Bound fraction of C2 in rat plasma ± SD (converted)
# [5] = read-out: % Unbound fraction of C2 in rat plasma ± SD
compound,measurement,setting,value
"O=C(O)CCCC(=O)Nc1ccc(O)c(C(=O)O)c1 [C2, 5-[(4-carboxybutanoyl)amino]-2-hydroxybenzoic acid]","fraction unbound at 4 h, 1 μg/mL",[1]; [4],0.921
same,"fraction unbound at 4 h, 1 μg/mL",[1]; [5],0.921 ± 0.023
same,"fraction unbound at 4 h, 5 μg/mL",[1]; [4],0.925
same,"fraction unbound at 4 h, 5 μg/mL",[1]; [5],0.925 ± 0.018
same,"fraction unbound at 4 h, 10 μg/mL",[1]; [4],0.919
same,"fraction unbound at 4 h, 10 μg/mL",[1]; [5],0.919 ± 0.007
same,"fraction unbound at 4 h, 20 μg/mL",[1]; [4],0.898
same,"fraction unbound at 4 h, 20 μg/mL",[1]; [5],0.898 ± 0.008
same,fraction unbound at 4 h,"[1]; concentrations of 1 to 20 μg/mL, read-out: unbound fraction",0.898 to 0.925
same,fraction unbound at 4 h,"[1]; summary in discussion, read-out: protein binding (converted)",0.9
same,BP ratio ± SD,[2]; 5 μg/mL,0.71 and 0.71 ± 0.01
same,BP ratio ± SD,[2]; 10 μg/mL,0.6 and 0.60 ± 0.03
same,effect on catalytic activity of MPO,[3],inhibited the catalytic activity of MPO
